Measurements reported in patent US20250281451A1, “COMPOSITIONS AND METHODS FOR MODULATING SLEEP AND USES THEREOF” (Brightseed, Inc., priority 2022, published 2025).
“Also recorded” adds a separate entry of the source.

Tests used:
Orx1 = target: T1, Orx1 (Homo sapiens, UniProt O43613); experiment: % agonism on Orx1 at the OR2 IC50 concentration; assay type: cell-based; settings: at the μM concentration needed to achieve IC50 in OR2
T1 sequence (O43613 1-425): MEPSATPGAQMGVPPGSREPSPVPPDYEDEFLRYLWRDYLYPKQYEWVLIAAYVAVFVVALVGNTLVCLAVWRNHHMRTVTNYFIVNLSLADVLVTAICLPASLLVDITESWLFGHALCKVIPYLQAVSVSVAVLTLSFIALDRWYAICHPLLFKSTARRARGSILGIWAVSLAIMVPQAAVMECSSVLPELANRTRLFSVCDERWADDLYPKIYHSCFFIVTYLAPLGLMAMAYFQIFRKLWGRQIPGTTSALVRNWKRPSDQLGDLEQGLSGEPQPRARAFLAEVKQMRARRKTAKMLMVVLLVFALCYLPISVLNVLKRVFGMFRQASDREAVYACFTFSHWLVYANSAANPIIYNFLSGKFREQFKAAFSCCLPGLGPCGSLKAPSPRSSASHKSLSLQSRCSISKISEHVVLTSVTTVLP
Description: For this example, the following protocol was used: 1.) seed cells in 20 μL Cell Plating Reagent; 2.) incubate cells overnight at 37° C. and 5% CO2; 3.) treat cells with 2.5 μL 10× antagonist prepared in Compound Dilution Buffer (For OR2 screening, 2.5 μL of 1:100 natural product sample in DiscoverX cell plating reagent.
(§1) The plants described herein were tested to determine the concentration, in μM, to achieve the relative IC50 of OR2 receptor, the absolute percent agonism achieved at the μM concentration of the relative OR2 IC50, the percentage receptor activity at the concentration, in μM, needed to achieve IC50 in OR2, the percentage cell viability, measured by XTT assay, at the IC50 μM concentration, the concentration of the fraction, in fold dilution, needed to achieve IC50 of OR2, and the percentage receptor activity at the concentration of the fraction, in fold dilution, needed to achieve IC50 of OR2.

Orx2 = target: T2, Orx2 (Homo sapiens, UniProt O43614); experiment: Orx2 antagonist screening, chemiluminescent cell assay with Orexin B EC80; assay type: cell-based; settings: for % Agonism Orx2 at Relative IC50: absolute percent agonism at the μM concentration of the relative OR2 IC50; for IC50: antagonist mode against Orexin B EC80, read-out: Relative IC50 of Orx2; for IC50 Dilution of Orx2 (fold dilution): concentration of the fraction of the plant source, in fold dilution, needed to achieve IC50 of OR2
T2 construct: DiscoverX
T2 sequence (O43614 1-444): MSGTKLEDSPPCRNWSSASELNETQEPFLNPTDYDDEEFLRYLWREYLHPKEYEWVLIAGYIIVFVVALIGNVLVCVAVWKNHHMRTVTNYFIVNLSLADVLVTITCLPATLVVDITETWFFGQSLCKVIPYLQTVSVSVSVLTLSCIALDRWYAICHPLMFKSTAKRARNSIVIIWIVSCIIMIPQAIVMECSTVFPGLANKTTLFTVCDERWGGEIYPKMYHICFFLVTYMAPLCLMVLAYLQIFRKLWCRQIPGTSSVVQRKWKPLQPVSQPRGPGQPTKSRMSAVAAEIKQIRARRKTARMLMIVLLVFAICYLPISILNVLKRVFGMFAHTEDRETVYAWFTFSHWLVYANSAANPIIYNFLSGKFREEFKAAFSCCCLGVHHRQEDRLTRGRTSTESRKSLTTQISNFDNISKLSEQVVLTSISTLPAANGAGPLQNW
Description: For this example, the following protocol was used: 1.) seed cells in 20 μL Cell Plating Reagent; 2.) incubate cells overnight at 37° C. and 5% CO2; 3.) treat cells with 2.5 μL 10× antagonist prepared in Compound Dilution Buffer (For OR2 screening, 2.5 μL of 1:100 natural product sample in DiscoverX cell plating reagent. Control antagonist, Seltorexant, 10× stock was prepared at 1500 nM); 4.) incubate for 30 minutes at 37° C. and 5% CO2; 5.) treat cells with 2.5 μL 10× agonist prepared in Compound Dilution Buffer (For OR2 screening, 2.5 μL of 10× Orexin B EC80, 252.7 nM); 6.) incubate for 90 minutes at 37° C. and 5% CO2; 7.) add 12.5 μL Working Detection Solution; 8.) incubate for 1 hour at room temperature in the dark; and 9.) read chemiluminescent signal.
as §1

cells = experiment: cell viability, XTT assay; assay type: cell-based; settings: at the IC50 μM concentration of the compound
Description: as §1

male Sprague-Dawley rat = experiment: in vivo tolerability, dose escalation, adverse effect observation; settings: for 15 min effects (adverse effects) / 30 min effects (adverse effects) / 60 min effects (adverse effects): n=3 rats, (x/3) animals affected
Description: In this example, the in vivo tolerability of Compounds 26, 21, 29, and 13 was assessed.
Naïve rats (male Sprague-Dawley rat) were acclimatized to the procedure room in their home cages up to 7 days following arrival to the test facility, with food and water available ad libitum. On the day of experiment, animals were acclimatized to the experimental room for at least one hour prior to the beginning of any experiment. All animals were tail marked, weighed and randomly assigned to treatment groups. The animals (n=3 per dose) were treated with either Compounds 26, 21, 29, and 13 (10 mL/kg, p.o.). For each compound a maximum of 4 doses were tested using a dose escalation procedure starting from 30 mg/kg. If this initial dose is well-tolerated, the dosage is increased to 100 mg/kg. If the 30 mg/kg dose is not tolerated, the dose is reduced to 15 mg/kg. Following the dose escalation procedure, if the 100 mg/kg dose is well-tolerated, the dose is escalated to 315 mg/kg. If it is not tolerated, the dose is decreased to 60 mg/kg. The pattern continues with the next decision point: if 315 mg/kg is well-tolerated, the dose is increased to the maximum of 500 mg/kg. If 315 mg/kg is not tolerated, the dose is decreased to 200 mg/kg.
The compounds would be considered not tolerated if three or more adverse effects (or any severe adverse effect) occurred at specific dose during the entire period of 60 mins. […] Mild—slight decrease in activity, responsive when provoked. Moderate—decrease in activity, less responsive when provoked.

SMILES	% Agonism on Orx1 at OR2 IC50 (Orx1)	% Agonism Orx2 at Relative IC50 (Orx2)	IC50 (Orx2)	IC50 Dilution of Orx2 (fold dilution) (Orx2)	% Cell viability at IC50 (cells)	other results
COc1c(O)cc2oc(-c3ccc(O)cc3)c(OC)c(=O)c2c1O [Compound 14, 5,7-dihydroxy-2-(4-hydroxyphenyl)-3,6-dimethoxychromen-4-one]	62.98%	50%	89 µM	3466.5 fold dilution	94.58%	–
COc1c(O)cc2oc(-c3ccc(O[C@@H]4O[C@H](C(=O)O)[C@@H](O)[C@H](O)[C@H]4O)c(O)c3)c(OC)c(=O)c2c1O [Compound 28, (2S,3S,4S,5R,6S)-6-[4-(5,7-dihydroxy-3,6-dimethoxy-4-oxochromen-2-yl)-2-hydroxyphenoxy]-3,4,5-trihydroxyoxane-2-carboxylic acid]	75.74%	50%	154 µM	–	107.58%	–
O=C(CCc1ccc(O)cc1)c1ccc(O)cc1OC1OC(CO)C(O)C(O)C1O (stereo not shown) [Compound 17, 3-(4-hydroxyphenyl)-1-[4-hydroxy-2-[3,4,5-trihydroxy-6-(hydroxymethyl)oxan-2-yl]oxyphenyl]propan-1-one]	100.52%	80%	188 µM	5786.9 fold dilution	89.87%	–
O=c1c(O)c(-c2ccc(O)cc2)oc2cc(O)cc(O)c12 [Compound 12, 3,5,7-trihydroxy-2-(4-hydroxyphenyl)chromen-4-one]	64.4%	65%	53.3 µM	7039.1 fold dilution	80.39%	–
COc1ccc(C(=O)CCc2ccc(O)cc2)c(O)c1 [Compound 16, 1-(2-hydroxy-4-methoxyphenyl)-3-(4-hydroxyphenyl)propan-1-one]	77.95%	75%	381 µM	5786.9 fold dilution	85.11%	–
O=C(O)[C@H]1O[C@@H](Oc2c(-c3ccc(O)cc3)oc3cc(O)cc(O)c3c2=O)[C@H](O)[C@@H](O)[C@@H]1O [Compound 20, (2S,3S,4S,5R,6S)-6-[5,7-dihydroxy-2-(4-hydroxyphenyl)-4-oxochromen-3-yl]oxy-3,4,5-trihydroxyoxane-2-carboxylic acid]	–	45%	146 µM	–	83.58%	–
C[C@@H]1O[C@@H](OC[C@H]2O[C@@H](Oc3c(-c4ccc(O)c(O)c4)oc4cc(O)cc(O)c4c3=O)[C@H](O)[C@@H](O)[C@@H]2O)[C@H](O)[C@H](O)[C@H]1O [Compound 15, 2-(3,4-dihydroxyphenyl)-5,7-dihydroxy-3-[(2S,3R,4S,5S,6R)-3,4,5-trihydroxy-6-[[(2R,3R,4R,5R,6S)-3,4,5-trihydroxy-6-methyloxan-2-yl]oxymethyl]oxan-2-yl]oxychromen-4-one]	67.71%	65%	79.1 µM	2283.9 fold dilution	103.46%	–
C[C@@H]1O[C@@H](O[C@H]2[C@H](Oc3c(-c4ccc(O)cc4)oc4cc(O)cc(O)c4c3=O)O[C@H](CO)[C@@H](O)[C@@H]2O)[C@H](O)[C@H](O)[C@H]1O [Compound 23, 3-[(2S,3R,4S,5S,6R)-4,5-dihydroxy-6-(hydroxymethyl)-3-[(2S,3R,4R,5R,6S)-3,4,5-trihydroxy-6-methyloxan-2-yl]oxyoxan-2-yl]oxy-5,7-dihydroxy-2-(4-hydroxyphenyl)chromen-4-one]	104.1268%	50%	174 µM	–	107.68%	–
CC1O[C@@H](OC2C(O)[C@H](Oc3c(-c4ccc(O)cc4)oc4cc(O)cc(O)c4c3=O)OC(CO)[C@H]2O)[C@@H](O)C(O)[C@H]1O (stereo partly drawn) [Compound 24, 3-[(2S,5R)-3,5-dihydroxy-6-(hydroxymethyl)-4-[(2S,3S,5R)-3,4,5-trihydroxy-6-methyloxan-2-yl]oxyoxan-2-yl]oxy-5,7-dihydroxy-2-(4-hydroxyphenyl)chromen-4-one]	48.83%	45%	191 µM	–	96.12%	–
O=C(CCc1ccc(O)cc1)c1ccc(OC2OC(CO)C(O)C(O)C2O)cc1O (stereo not shown) [Compound 19, 3-(4-hydroxyphenyl)-1-[2-hydroxy-4-[3,4,5-trihydroxy-6-(hydroxymethyl)oxan-2-yl]oxyphenyl]propan-1-one]	68.74%	80%	319 µM	5786.9 fold dilution	86.12%	–
O=c1c(O)c(-c2ccc(O)c(O)c2)oc2cc(O)cc(O)c12 [Compound 29, 2-(3,4-dihydroxyphenyl)-3,5,7-trihydroxychromen-4-one]	–	–	–	–	–	15 min effects (adverse effects) (male Sprague-Dawley rat; 30 mg/kg p.o.): No adverse effects; 30 min effects (adverse effects) (male Sprague-Dawley rat; 30 mg/kg p.o.): No adverse effects; 60 min effects (adverse effects) (male Sprague-Dawley rat; 30 mg/kg p.o.): No adverse effects; 15 min effects (adverse effects) (male Sprague-Dawley rat; 100 mg/kg p.o.): Reduced activity; 30 min effects (adverse effects) (male Sprague-Dawley rat; 100 mg/kg p.o.): No adverse effects; 60 min effects (adverse effects) (male Sprague-Dawley rat; 100 mg/kg p.o.): No adverse effects; 15 min effects (adverse effects) (male Sprague-Dawley rat; 315 mg/kg p.o.): Reduced activity; 30 min effects (adverse effects) (male Sprague-Dawley rat; 315 mg/kg p.o.): Reduced activity; also recorded: Pica (2/3); 60 min effects (adverse effects) (male Sprague-Dawley rat; 315 mg/kg p.o.): Reduced activity (3/3); 15 min effects (adverse effects) (male Sprague-Dawley rat; 500 mg/kg p.o.): Pica (1/3); 30 min effects (adverse effects) (male Sprague-Dawley rat; 500 mg/kg p.o.): Pica (2/3); 60 min effects (adverse effects) (male Sprague-Dawley rat; 500 mg/kg p.o.): No adverse effects; tolerability (male Sprague-Dawley rat; all four doses (30, 100, 315 and 500 mg/kg) p.o., 60 min observation): well-tolerated
